Data published in BindingDB's records for doi:10.1021/acs.jmedchem.9b00963 (Hong Kong Polytechnic University, 2019).

Columns and labels:
[1] = Inhibition of BCRP in human MCF7/MX100 cells assessed as reversal of topotecan resistance after 5 days by MTS/PMS assay
[2] = Inhibition of BCRP (unknown origin) transfected in HEK293/R2 cells assessed as reversal of topotecan resistance after 5 days by MTS/PMS assay
[3] = Inhibition of P-gp (unknown origin) expressed in human LCC6MDR cells assessed as reversal of paclitaxel resistance after 5 days by MTS/PMS assay
[4] = Inhibition of BCRP (unknown origin) transfected in human HEK293/R2 cells assessed as potentiation of topotecan-induced cytotoxicity measured as topotecan IC50 at 1 uM (Rvb = 531.5 +/- 180 nM)
[5] = Inhibition of P-gp (unknown origin) expressed in human LCC6MDR cells assessed as potentiation of mitoxantrone-induced cytotoxicity after 5 days by MTS/PMS assay
[6] = Inhibition of BCRP (unknown origin) expressed in human HEK293/R2 cells assessed as potentiation of mitoxantrone-induced cytotoxicity after 5 days by MTS/PMS assay
[7] = Inhibition of MDR in human LCC6MDR cells assessed as reduction in cell viability after 5 days by MTS/PMS assay
[8] = Inhibition of MRP1 in human 2008/MRP1 cells assessed as reduction in cell viability after 5 days by MTS/PMS assay

Row | Structure (SMILES) | EC50 [1] | EC50 [2] | EC50 [3] | IC50 [4] | EC50 [5] | EC50 [6] | IC50 [7] | IC50 [8]
1 | COC(=O)c1cccc(COc2c(-c3ccc(OCCOCCn4cc(-c5cccc(-c6cn(CCOCCOc7ccc(-c8oc9ccccc9c(=O)c8OCc8cccc(C(=O)OC)c8)cc7)nn6)c5)nn4)cc3)oc3ccccc3c2=O)c1 | 1.1 nM | 2.2 nM | > 1000 nM | 25 nM | > 2000 nM | 11 nM |  | 
2 | COc1ccc2c3c([nH]c2c1)[C@H](CC(C)C)N1C(=O)[C@H](CCC(=O)OC(C)(C)C)NC(=O)[C@@H]1C3 [Ko143] |  |  | 1060 nM |  | 943 nM |  |  | 
3 | O=C1c2c(O)ccc(O)c2C(=O)c2c(NCCNCCO)ccc(NCCNCCO)c21 [SMR000058480] |  |  |  |  |  |  | 1500 nM | 28 nM

Continued, in another order:

Row | EC50 [1] | EC50 [2] | EC50 [3] | Structure (SMILES) | IC50 [4] | EC50 [5] | EC50 [6] | IC50 [7] | IC50 [8]
4 | 2.4 nM | 6.1 nM | > 1000 nM | COC(=O)c1cccc(COc2c(-c3ccc(OCCOCCn4cc(CCCc5cn(CCOCCOc6ccc(-c7oc8ccccc8c(=O)c7OCc7cccc(C(=O)OC)c7)cc6)nn5)nn4)cc3)oc3ccccc3c2=O)c1 | 19 nM |  |  |  | 
5 | 3.3 nM | 5.3 nM | > 1000 nM | COC(=O)c1cccc(COc2c(-c3ccc(OCCOCCn4cc(CN(Cc5ccccc5)Cc5cn(CCOCCOc6ccc(-c7oc8ccccc8c(=O)c7OCc7cccc(C(=O)OC)c7)cc6)nn5)nn4)cc3)oc3ccccc3c2=O)c1 | 15 nM |  |  |  | 
6 | 2.1 nM | 4.2 nM | > 1000 nM | COC(=O)c1cccc(COc2c(-c3ccc(OCCOCCn4cc(COCc5cn(CCOCCOc6ccc(-c7oc8ccccc8c(=O)c7OCc7cccc(C(=O)OC)c7)cc6)nn5)nn4)cc3)oc3ccccc3c2=O)c1 | 20 nM |  |  |  | 
